Test results taken from PMC3815476 (Biochemistry, 2013).

Molecular target: Shp (Streptococcus pyogenes, UniProt Q06A48, M66A)
Test: biochemical

c1c[nH]cn1 [imidazole]
Kd: 210 ± 11 µM
